Experimental data published in ChEMBL document CHEMBL4425175, “Synthesis and preliminary in vitro kinase inhibition evaluation of new diversely substituted pyrido[3,4-g]quinazoline derivatives” (Bioorg Med Chem Lett, 2016).

Columns and labels:
[1] = target: Cyclin-dependent kinase 5/CDK5 activator 1 (Homo sapiens) (UniProt Q00535+Q15078); assay: Inhibition of human recombinant CDK5/p25 using histone1 as substrate at 10 uM after 30 mins in presence of [gamma33P] ATP by scintillation counting; format: protein-complex assay
[2] = target: Dual specificity protein kinase CLK1 (Homo sapiens) (UniProt P49759); assay: Inhibition of GST-fused human recombinant CLK1 expressed in Escherichia coli using GRSRSRSRSRSR peptide as substrate at 10 uM
[3] = target: Dual specificity tyrosine-phosphorylation-regulated kinase 1A (Rattus norvegicus) (UniProt Q63470); assay: Inhibition of GST-fused rat recombinant DYRK1A expressed in Escherichia coli using myelin basic protein as substrate at 10 uM after 30 mins in presence of [gamma33P] ATP by scintillation counting
Sus scrofa = species on record: Sus scrofa; assay: Inhibition of porcine brain CK1delta/epsilon using RRKHAAIGpSAYSITA as substrate at 10 uM after 30 mins in presence of [gamma33P] ATP by scintillation counting
[4] = target: Glycogen synthase kinase-3 (Sus scrofa) (UniProt B2LUN4+I6LNT8); assay: Inhibition of porcine brain GSKalpha/beta using GS-1 as substrate at 10 uM after 30 mins in presence of [gamma33P] ATP by scintillation counting

Sequence of Cyclin-dependent kinase 5/CDK5 activator 1 (Homo sapiens) (Q00535 whole entry, the tested form may be a part): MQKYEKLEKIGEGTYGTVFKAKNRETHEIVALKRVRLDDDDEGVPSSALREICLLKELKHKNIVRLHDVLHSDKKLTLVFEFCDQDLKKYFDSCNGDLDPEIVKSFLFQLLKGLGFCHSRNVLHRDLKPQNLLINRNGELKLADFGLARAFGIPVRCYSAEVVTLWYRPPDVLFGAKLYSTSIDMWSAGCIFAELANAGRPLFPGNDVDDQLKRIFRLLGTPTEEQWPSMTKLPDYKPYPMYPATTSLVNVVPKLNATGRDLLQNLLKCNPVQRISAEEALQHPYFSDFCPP
Sequence of Cyclin-dependent kinase 5/CDK5 activator 1 (Homo sapiens) (Q15078 99-307 partner limits assumed): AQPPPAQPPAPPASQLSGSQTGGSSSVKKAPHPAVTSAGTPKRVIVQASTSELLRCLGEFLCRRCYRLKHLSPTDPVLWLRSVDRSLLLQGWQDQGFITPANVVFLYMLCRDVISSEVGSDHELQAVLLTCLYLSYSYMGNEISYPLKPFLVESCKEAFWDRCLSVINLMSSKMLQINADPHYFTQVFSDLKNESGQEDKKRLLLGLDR
Sequence of Dual specificity protein kinase CLK1 (Homo sapiens) (P49759 whole entry, looked up, the tested form may be a part): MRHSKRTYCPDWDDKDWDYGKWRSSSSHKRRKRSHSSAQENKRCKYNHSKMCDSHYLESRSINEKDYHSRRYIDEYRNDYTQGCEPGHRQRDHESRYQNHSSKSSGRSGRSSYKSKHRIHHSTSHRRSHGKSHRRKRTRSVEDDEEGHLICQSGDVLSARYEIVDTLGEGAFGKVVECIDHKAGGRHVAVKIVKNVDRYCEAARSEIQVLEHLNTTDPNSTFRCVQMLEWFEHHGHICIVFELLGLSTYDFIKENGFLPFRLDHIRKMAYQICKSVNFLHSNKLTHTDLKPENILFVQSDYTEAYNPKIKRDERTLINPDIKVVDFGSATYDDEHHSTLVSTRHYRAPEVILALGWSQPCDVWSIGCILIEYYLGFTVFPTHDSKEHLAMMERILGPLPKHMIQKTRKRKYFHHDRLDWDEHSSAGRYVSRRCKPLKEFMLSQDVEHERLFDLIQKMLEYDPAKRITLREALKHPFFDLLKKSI

| inhibition [1] [%] | inhibition [2] [%] | inhibition [3] [%] | inhibition (Sus scrofa) [%] | inhibition [4] [%] | Structure (SMILES) |
| --- | --- | --- | --- | --- | --- |
| 33 | 32 | 49 | 55 | 25 | Nc1ncc2c(-c3ccccc3)c3cnccc3c(N)c2n1 |
| 61 | 31 | 65 | 84 | 79 | CCc1c2cnccc2c(N)c2nc(N)ncc12 |
| 88 | 30 | 82 | 83 | 78 | Cc1c2cnccc2c([N+](=O)[O-])c2nc(N)ncc12 |
| 25 | 30 | 53 | 49 | 74 | Nc1ncc2c(-c3ccccc3)c3cnccc3c([N+](=O)[O-])c2n1 |
| 2 | 37 | 40 | 64 | 14 | Nc1ncc2c(Cc3ccccc3)c3cnccc3c([N+](=O)[O-])c2n1 |
| 44 | 98 | 95 | 91 | 75 | Nc1ncc2cc3cnccc3c([N+](=O)[O-])c2n1 |
| 91 | 31 | 86 | 57 | 100 | CCCCc1c2cnccc2c([N+](=O)[O-])c2nc(N)ncc12 |
| 96 | 31 | 80 | 87 | 98 | CCc1c2cnccc2c([N+](=O)[O-])c2nc(N)ncc12 |
| 54 | 30 | 90 | 70 | 43 | Cc1c2cnccc2c(N)c2nc(N)ncc12 |
| 0 | 28 | 76 | 34 | 41 | Nc1ncc2c(Br)c3cnccc3c([N+](=O)[O-])c2n1 |
| 70 | 100 | 99 | 76 | 54 | Nc1ncc2cc3cnccc3c(N)c2n1 |
| 4 | 29 | 49 | 76 | 12 | Nc1ncc2c(Cc3ccccc3)c3cnccc3c(N)c2n1 |
| 0 | 31 | 52 | 42 | 34 | CCCCc1c2cnccc2c(N)c2nc(N)ncc12 |
